For experiment [1], the system named is U2OS cells. Kind of experiment: autophagic flux by confocal microscopy and western blotting. Type of experiment: cell-based, Human. As to the method:
[…]. After harvesting, cells were lysed with radioimmunoprecipitation assay (RIPA) buffer (50 mM Tris-HCl, pH 7.5, 150 mM NaCl, 0.5 % deoxycholate, 1 % Triton X-100, 0.1 % SDS and 1x protease inhibitors) and left on ice for 30 minutes. Cell lysates were clarified by centrifugation at 10000xg for 20 min at 4 °C. Protein concentrations of the supernatants were determined by BCA assay and the absorbance was measured at 562 nm. SDS-PAGE and WB was performed.
For screening purposes, cells were seeded in 384 well plates and left over night for attachment. […]. For controls, cells were treated with 250 nM torin and/or 100 nM BafA1 for 2 hours.
Afterwards, medium was removed and 4 % (w/v) paraformaldehyde (PFA) in PBS buffer was added to the cells for 20 minutes, incubated at room temperature. Cells were permeabilized with 0.1 % (v/v) Triton X-100 for 10 min at room temperature and washed with PBS. Cells were blocked with 3 % (w/v) bovine serum albumin (BSA) in PBS for 45 minutes at 37 °C and then incubated with anti-LC3B (PM036, MBL) or anti-p62 (PM045 or M162-3, MBL) primary antibody diluted in 0.3 % BSA (1:2000 or 1:500) for 1.5-2 hours at 37 °C. Cells were washed three times with PBS. Secondary Alexa Fluor 488 - labeled antibodies (A-11008, Invitrogen) were diluted in 0.3 % BSA (1:2500) and incubated on cells for 15 minutes at 37 °C. Cells were washed once with PBS, incubated with DRAQ5 (#4084, Cell Signaling) diluted in PBS (1:5000) for 10 minutes and washed three times with PBS.
384 well plates were then analyzed with an automated confocal microscope Opera (PerkinElmer) enabling high throughput high content screening image analysis. […] Signal was detected with a fast gated CCD camera. […]
The LC3B protein is a ubiquitin-like protein that can be conjugated to phosphatidylethanolamine (PE) in the membrane of the incipient autophagosome. […] Autophagic flux is often inferred on the basis of LC3B-II turnover, measured by western blot (WB) or immunofluorescence (IF) in the presence and absence of lysosomal degradation. […]
(A western blot detects proteins with antibodies after separation by electrophoresis.)

In experiment [2] the test system is U2OS cells. Kind of experiment: MTT cell viability assay. It is filed as cell-based, Human. As to the method:
(§1) The MTT assay is a colorimetric assay for assessing cell viability. NAD(P)H-dependent cellular oxidoreductase enzymes in metabolic active cells reduce the tetrazolium dye MTT 3-(4,5-dimethylthiazol-2-yl)-2,5-diphenyltetrazolium bromide to its insoluble purple formazan. All cell types were seeded in 96 well plates and left over night for attachment. Next day, cells were treated with 100 µM compound I-1 for 24, 48, 72, and 96 hours. For controls, 1 µM staurosporine and 100 nM BafA1 were used. The assay was performed according to manufacturer's instructions and the absorbance of the formazan product was measured at 595 nm.
In general terms: Formazan colour is commonly taken as a measure of viable cells.

The next experiment concerns A549. Kind of experiment: MTT cell viability assay. It is filed as cell-based. As to the method: as §1
A further experiment has as its system HCT116. Kind of experiment: MTT cell viability assay. Type of experiment: cell-based. As to conditions: 72 and 96 hours. Here is the method: as §1
The next experiment has as its system PANC1. Kind of experiment: MTT cell viability assay. It is filed as cell-based. To be noted: 72 and 96 hours. As to the method:
as §1

`Brc1ccc(CSC2=NCN(Cc3cccnc3)CN2)cc1` [Compound I-1, 6-((4-bromobenzyl)thio)-3-(pyridin-3-ylmethyl)-1,2,3,4-tetrahydro-1,3,5-triazine]: in the experiment with U2OS cells [1] (100 µM compound together with BafA1 100 nM, compared with single treatment), the “numbers of LC3B spots and levels of LC3B-II” value was “did not increased further”. Besides, the “amount of LC3B-II protein and LC3B spots” value in the experiment with U2OS cells [1] (100 µM, 1 hr) is “increased”. Besides, the cell survival result in the experiment on U2OS cells [2] (72 and 96 hours) is on record as “almost no cell survival”; in the experiment on HCT116, “almost no cell survival”. Further, the cell viability result in the experiment with U2OS cells [2] (24 hours, 100 µM) was “decreased viability”; with A549 (48 hours), “unaffected”. In addition, the reduced cell viability entry was “approximately 50%” in the experiment on A549 (72 and 96 hours); “approximately 50%” in the experiment with PANC1.

(Values after EP3184514A1, “AUTOPHAGY INHIBITORS” (Deutsches Krebsforschungszentrum, priority 2015, dated 2017).)
